What was measured:
[1] = system: female C57/BL6 mice
Protocol: This difference in binding is reflected in the results of the pharmacological assays. […] Such effects are considered to be mediated by the CBI receptor.
R. (1993) Eur. J. Pharmacol. 231, 313–314]. At various times after injection mice were tested in four assays consecutively. The four assays were (1) motor activity (ambulation and rearing) in an open field (20×30 cm, divided into 12 squares of equal size) for 8 min; (2) immobility (“catalepsy”) on a ring of 5.5 cm diameter for 4 min; (3) body temperature with a telethermometer (Yellow Springs Instruments Co.); and (4) analgesia on a hot plate maintained at 55° C., measured as the latency (in seconds) until the first hind paw lick or jump from the plate (the latter response was rarely observed) with a maximum of 45 s.

[2] = system: female Sabra mice; assay: Inhibition of intestinal motility (fecal pellets voided over 2 hr); assay type: in vivo, mouse
Protocol: Intestinal motility was assessed every 15 min (over a 2 hr period) by the cumulative number of fecal pellets voided in a two hour period after separating the mice into individual cages. […] By 90 min all treated groups differed from controls.
Rectal temperature was also recorded as a measure of central activity.

[3] = system: anesthetized rats; assay: Blood pressure assay in anesthetized cannulated rats; assay type: in vivo, rat
Protocol: Systemic blood pressure was monitored in male rats (Sabra strain, 270–350 g). A chronic cannula (P 50, Clay Adams) was implanted into the femoral artery under pentobarbital anesthesia (60 mg/kg). The jugular vein was cannulated for drug administration. The arterial cannula was attached to a pressure transducer (Db23, Statham City) and the transducer was connected to a data acquisition system (CODAS software and scroller card, Dataq, Ohio). Pressure was sampled at a rate of 1/s.
Recordings were taken for 30–60 min before treatment.

[4] = system: arachidonic acid-induced swelling of the ear in female Sabra mice; assay: Arachidonic acid-induced ear inflammation in the mouse; assay type: in vivo; conditions: for arachidonic acid-induced ear swelling: injected 30 to 90 min before arachidonic acid
Protocol: The other ear was treated with […] of EtOH and served as a control. Ear swelling was assessed by measuring ear thickness with a dial thickness gauge (Mitutoyo, Japan) just before treatment and every 15 min after A′A application for 90 min. […] N=5 for each treatment group.
Ear inflammation was measured by assessing ear tissue swelling after topical application of arachidonic acid. […] J., Wagner, B., Ballaron, S. & De Young, L. M. (1984) J. Invest. Dernlatol. 82, 367–371]. […] The opposite ear served as a control ([…] ethanol). Ear thickness was determined (in 0.01 mm units) every 15 min for 90 min starting immediately after arachidonic acid application using a dial thickness gauge (Mitutoyo, Japan).

[5] = system: formalin-induced peripheral pain in mice; assay: Formalin test for peripheral pain; assay type: in vivo, mouse
Protocol: Pain was assessed as the total number of licks of the injected hindpaw recorded for the duration of one hr. Early (5 min) and late (25–60 min) phase pain were observed as described in Calignano, A., La Rana, G., Giuffrida, A. & Piomelli, D. (1998) Nature (London) 394, 277–280.
Pain mediated by the peripheral nervous system, was tested in the “formalin test” for cutaneous (peripheral) pain [Tjolson, A., Berge, O-G., Hunskaar, S., Rosland, J. H. and Hole, K. (1992) Pain, 51, 5–17; Calignano, A., La Rana, G., Giuffrida, A & Piomelli, D. (1998) Nature (London) 394, 277–280; and Jagger, S. I., Hasnie, F. S., Sellaturay, S. and Rice, A.S.C. (1998) Pain 76, 189–199]. […] Immediately after formalin administration pain was assessed every 5 min for 1 hr by the number of times the animal licks the formalin-injected paw.

[6] = system: acetic acid induced inflammatory bowel disease in male Sprague Dawley rats; assay: Acetic acid induced inflammatory bowel disease; assay type: in vivo, rat
Protocol: Animals were clinically followed for 1 week and body weight, presence of blood in the stool, and stool consistency were monitored and recorded daily and scored on a scale of 0–4 according to the scale provided in Table 1 [Murthy et al., Dig. Dis. Sci., 38(9), 1722–1734, (1993)].
Seven days post disease induction animals were euthanized with phenobarbital (100 mg/kg i.p.), the whole colon excised, slit longitudinally, and examined under a magnifying glass. Any visible damage to the colon was recorded and scored.
Clinical outcome was analyzed using analysis of variance (ANOVA) followed by Duncan's post hoc test. A non-parametric test (Wilcox Rank Sum Test) was used to evaluate the gross pathology findings.

[7] = system: experimental autoimmune arthritis in CD-1 male mice; assay: Experimental autoimmune arthritis (collagen type 2 in complete Freund's adjuvant); assay type: in vivo, mouse
Protocol: Experimental autoimmune arthritis is induced in animals by immunization with collagen type 2 in complete Freund's adjuvant.
Adult CD-1 male mice (27–33 gr), at least five per treatment group, are used in the study. Each animal is administered 100 μg/ml collagen type 2 in 0.1 mL complete Freund's adjuvant. The collagen is administered subcutaneously into the base of the tail. The volume of each hind paw is measured using a plethysmometer (commercially available from Hugo Basill of Italy) before collagen administration and on days 1, 4, 7, 10, 13, and 16 of treatment (30 minutes after drug treatment). […] All treatments are administered intraperitoneally. […] The same procedure is performed with blank cosolvent. Diclofenac is prepared at Pharmos, as a solution of 1 mg/ml. At the same time the paws are measured they are also clinically evaluated according to the method of R. O Williams, Proc. Natl. Acad. Sci. USA: 89: 9784–9788, wherein 0=normal, 1=slight swelling and erythema, 2=pronounced edematous swelling, and 3=joint rigidity.
The major arthritis related sign that is evident in experimental autoimmune arthritis is swelling of the paws. […] The differences are compared using a non parametric analysis (Wilcoxon Rank Sum Test).

[8] = system: EAE in Lewis rats; assay: Experimental autoimmune encephalomyelitis (EAE); assay type: in vivo, rat; conditions: intravenous, treatment from day 10 to day 18 post induction
[9] = target: CB2 receptor (Homo sapiens, UniProt P34972); conditions: background, known compound; cited from earlier work
[10] = 40 mg/kg i.p., tested 10, 30 or 150 min after administration

Chain of CB2 receptor (P34972 whole entry): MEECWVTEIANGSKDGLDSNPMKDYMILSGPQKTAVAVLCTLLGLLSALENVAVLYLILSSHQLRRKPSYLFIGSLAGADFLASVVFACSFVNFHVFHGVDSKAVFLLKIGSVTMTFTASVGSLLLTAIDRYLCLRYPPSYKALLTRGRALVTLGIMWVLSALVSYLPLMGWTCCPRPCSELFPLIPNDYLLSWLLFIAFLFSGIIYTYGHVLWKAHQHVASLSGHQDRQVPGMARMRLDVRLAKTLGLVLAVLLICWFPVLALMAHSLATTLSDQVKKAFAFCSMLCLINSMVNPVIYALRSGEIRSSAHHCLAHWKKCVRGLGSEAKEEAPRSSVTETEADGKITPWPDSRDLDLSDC

## CCCCCCC(C)(C)c1cc(OC)c([C@H]2C=C(CO)[C@H]3CC2C3(C)C)c(OC)c1 (single isomer, unassigned; (+)) [HU-308, (+)-(1-a-H,-(3-H,5-a-H)-4-(2,6-dimethoxy-4-(1,1-dimethylheptyl)phenyl]-6,6-dimethylbicycloj3.1.1]hept-2-ene-2-carbinol]
[1]; [10]
  activity in an open field trial (ambulation, rearing): no decrease in their activity in an open field trial
  analgesia on a hot plate: no analgesia on a hot plate
  body temperature: no reduction in body temperature
  catalepsy (immobility on a ring): no catalepsy
[1]; mice, summary
  activity in the tetrad of behavioral tests specific for THC-type CNS activity: no activity
[2]; 20 mg/kg i.p., mice
  inhibition of intestinal mobility: complete inhibition of intestinal mobility
[2]; 100 mg/kg i.p., after 75 min
  number of fecal boli voided vs controls: significantly fewer boli than controls
[2]; HU-308 plus SR144528
  inhibition of intestinal motility in presence of CB2 antagonist SR144528: in part blocked this effect
[3]; 30 mg/kg i.v., anesthetized cannulated rats
  effect on blood pressure: lowers blood pressure
[3]; SR141716A 3 mg/kg injected 5 min prior to HU-308 30 mg/kg i.v.
  hypotensive effect after CB1 antagonist SR 141716A: not by the CB1 antagonist SR 141716A
[3]; SR144528 1 mg/kg injected 5 min prior to HU-308 30 mg/kg i.v.
  hypotensive effect after CB2 antagonist SR 144528: blocked by the CB2 antagonist SR 144528
[3]; i.v. bolus, preliminary observations
  time for blood pressure effect to return to normal after administration: < 30 min
[3]; i.v. doses lower than 30 mg/kg
  effect on blood pressure, lower doses: did not have a significant effect
[4]; 50 mg/kg i.p.
  arachidonic acid-induced ear swelling: significant reduction of arachidonic acid-induced ear swelling
[4]; SR 141716A 5 mg/kg administered 15 min before HU-308 50 mg/kg i.p.
  anti-inflammatory effect of HU-308 after CB1 antagonist SR 141716A: did not prevent the anti-inflammatory effect of HU-308
[4]; SR 144528 0.5 mg/kg before HU-308 50 mg/kg i.p.
  anti-inflammatory effect of HU-308 after CB2 antagonist SR 144528: reduced the anti-inflammatory effect of HU-308
[5]; 50 mg/kg i.p., 90 min before formalin, late phase (25-60 min)
  formalin-induced peripheral pain (licks of injected hindpaw), late phase: reduced peripheral pain during the late phase of pain behavior
[5]; 50 mg/kg i.p., early (5 min) and late (25-60 min) phase
  formalin-induced peripheral pain, early versus late phase: effects were only observed during the late phase
[5]; SR 141716A injected 15 min before HU-308
  peripheral analgetic effect after CB1 antagonist SR 141716A: not by SR 141716A
[5]; SR144528 injected 15 min before HU-308 50 mg/kg i.p.
  peripheral analgetic effect after CB2 antagonist SR 144528: prevented by SR 144528
[6]; 10 and 20 mg/kg i.p. daily for seven days
  severity of acid induced inflammatory bowel disease: can reduce the severity of acid induced inflammatory bowel disease
[6]; i.p. daily for 7 days, p<0.05 for 10 mg/kg, p=0.052 for 20 mg/kg
  reduction of pathological lesion severity in the gastrointestinal tract (gross pathology score) compared to vehicle: 35%
[7]; 2-15 mg/kg i.p. every three days or once daily
  incidence and severity of swelling of the paws: decreased incidence and severity of swelling of the paws
[8]
  mean clinical score of EAE: diminution of mean clinical score

## C=C1CC[C@@H]2[C@@H](C1)c1c(OC)cc(C(C)(C)CCCCCC)cc1OC2(C)C [L-759,656]
[9]
  CB1/CB2 binding ratio: > 1000

## Cc1c(C(=O)NN2CCCCC2)nn(-c2ccc(Cl)cc2Cl)c1-c1ccc(Cl)cc1 [SR 141716A]
[4]; 5 mg/kg i.p., alone
  arachidonic acid-induced ear swelling, antagonist by itself: by itself reduced arachidonic acid-induced ear swelling

## O=C(O)Cc1ccccc1Nc1c(Cl)cccc1Cl [diclofenac, reference compound]
[7]; 10 mg/kg i.p. every 3 days, positive control
  paw volume compared to vehicle: smaller paw volume compared to the vehicle treated rats, but this difference is not statistically significant

## COc1ccc2c(c1)c(CC(=O)O)c(C)n2C(=O)c1ccc(Cl)cc1 [indomethacin]
[4]; 20 mg/kg i.p.
  arachidonic acid-induced ear swelling: significant reduction of arachidonic acid-induced ear swelling
[4]; indomethacin 20 mg/kg i.p.
  anti-inflammatory effect compared with HU-308 (50 mg/kg): greater than that produced by HU-308

## SR 144528
[4]; 0.5 mg/kg, alone
  anti-inflammatory effect, antagonist by itself: did not by itself induce an anti-inflammatory effect
